Test results published in PubChem BioAssay (NCI).
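In this assay, cells in 96-well plates receive the compound at five concentrations for 48 hours. Endpoints are linearly interpolated between the surrounding concentrations. TGI: total growth inhibition.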

Experiments:
Assay in all cases: inhibition of tumour cell growth, NCI panel, 48 h
786-0 renal = test system: 786-0 renal
A498 renal = test system: A498 renal
A549 NSCLC = test system: A549 NSCLC
ACHN renal = test system: ACHN renal
BT-549 breast = test system: BT-549 breast
CAKI-1 renal = test system: CAKI-1 renal
CCRF-CEM leukemia = test system: CCRF-CEM leukemia
DU-145 prostate = test system: DU-145 prostate
EKVX NSCLC = test system: EKVX NSCLC
HCC-2998 colon = test system: HCC-2998 colon
HCT-116 colon = test system: HCT-116 colon
HCT-15 colon = test system: HCT-15 colon
HL-60(TB) leukemia = test system: HL-60(TB) leukemia
HOP-62 NSCLC = test system: HOP-62 NSCLC
HOP-92 NSCLC = test system: HOP-92 NSCLC
HS 578T breast = test system: HS 578T breast
HT29 colon = test system: HT29 colon
IGROV1 ovarian = test system: IGROV1 ovarian
K-562 leukemia = test system: K-562 leukemia
KM12 colon = test system: KM12 colon
LOX IMVI melanoma = test system: LOX IMVI melanoma
M14 melanoma = test system: M14 melanoma
MALME-3M melanoma = test system: MALME-3M melanoma
MCF7 breast = test system: MCF7 breast
MDA-MB-231 breast = test system: MDA-MB-231 breast
MDA-MB-435 = test system: MDA-MB-435
MDA-N = test system: MDA-N
MOLT-4 leukemia = test system: MOLT-4 leukemia
NCI-H23 lung = test system: NCI-H23 lung
NCI-H460 lung = test system: NCI-H460 lung
NCI-H522 lung = test system: NCI-H522 lung
NCI/ADR-RES ovarian = test system: NCI/ADR-RES ovarian
OVCAR-3 ovarian = test system: OVCAR-3 ovarian
OVCAR-4 ovarian = test system: OVCAR-4 ovarian
OVCAR-5 ovarian = test system: OVCAR-5 ovarian
OVCAR-8 ovarian = test system: OVCAR-8 ovarian
PC-3 prostate = test system: PC-3 prostate
RPMI-8226 leukemia = test system: RPMI-8226 leukemia
SF-268 CNS = test system: SF-268 CNS
SF-295 CNS = test system: SF-295 CNS
SK-MEL-2 melanoma = test system: SK-MEL-2 melanoma
SK-MEL-28 melanoma = test system: SK-MEL-28 melanoma
SK-OV-3 ovarian = test system: SK-OV-3 ovarian
SN12C renal = test system: SN12C renal
SNB-19 CNS = test system: SNB-19 CNS
SR leukemia = test system: SR leukemia
SW-620 colon = test system: SW-620 colon
TK-10 renal = test system: TK-10 renal
U251 CNS = test system: U251 CNS
UACC-257 melanoma = test system: UACC-257 melanoma
UACC-62 melanoma = test system: UACC-62 melanoma
UO-31 renal = test system: UO-31 renal
COLO 205 colon = test system: COLO 205 colon
NCI-H226 lung = test system: NCI-H226 lung
RXF 393 renal = test system: RXF 393 renal
SF-539 CNS = test system: SF-539 CNS
SK-MEL-5 melanoma = test system: SK-MEL-5 melanoma
SNB-75 CNS = test system: SNB-75 CNS

With `COc1nc(SC)nc2c1C(O)n1c(nc3ccccc31)S2` (stereo not given) the TGI (786-0 renal) was 24.6 µM, the TGI (A498 renal) was 39.4 µM and the TGI (A549 NSCLC) was > 100 µM. The TGI (ACHN renal) was 39.9 µM, the TGI (BT-549 breast) was > 100 µM and the TGI (CAKI-1 renal) was > 100 µM. For the same molecule, the TGI (CCRF-CEM leukemia) was 22.3 µM, the TGI (DU-145 prostate) was > 100 µM and the TGI (EKVX NSCLC) was > 100 µM. The TGI (HCC-2998 colon) was > 100 µM, the TGI (HCT-116 colon) was 30.4 µM and the TGI (HCT-15 colon) was > 100 µM. It also gave a TGI (HL-60(TB) leukemia) of 60.5 µM, a TGI (HOP-62 NSCLC) of 37.4 µM and a TGI (HOP-92 NSCLC) of 61.9 µM. The TGI (HS 578T breast) was 50.7 µM, the TGI (HT29 colon) was > 100 µM and the TGI (IGROV1 ovarian) was > 100 µM. The TGI (K-562 leukemia) was > 100 µM, the TGI (KM12 colon) was > 100 µM and the TGI (LOX IMVI melanoma) was > 100 µM. The TGI (M14 melanoma) was > 100 µM, the TGI (MALME-3M melanoma) was > 100 µM and the TGI (MCF7 breast) was 91.2 µM. For the same molecule, the TGI (MDA-MB-231 breast) was > 100 µM, the TGI (MDA-MB-435) was > 100 µM and the TGI (MDA-N) was > 100 µM. The TGI (MOLT-4 leukemia) was > 100 µM, the TGI (NCI-H23 lung) was 95.4 µM and the TGI (NCI-H460 lung) was > 100 µM. For the same molecule, the TGI (NCI-H522 lung) was 69.1 µM, the TGI (NCI/ADR-RES ovarian) was 94.9 µM and the TGI (OVCAR-3 ovarian) was 85.7 µM. The TGI (OVCAR-4 ovarian) was 44.4 µM, the TGI (OVCAR-5 ovarian) was > 100 µM and the TGI (OVCAR-8 ovarian) was 80.9 µM. The TGI (PC-3 prostate) was > 100 µM, the TGI (RPMI-8226 leukemia) was > 100 µM and the TGI (SF-268 CNS) was > 100 µM. The TGI (SF-295 CNS) was 59.6 µM, the TGI (SK-MEL-2 melanoma) was > 100 µM and the TGI (SK-MEL-28 melanoma) was > 100 µM. For the same molecule, the TGI (SK-OV-3 ovarian) was 67.2 µM, the TGI (SN12C renal) was > 100 µM and the TGI (SNB-19 CNS) was > 100 µM. For the same molecule, the TGI (SR leukemia) was > 100 µM, the TGI (SW-620 colon) was 47.7 µM and the TGI (TK-10 renal) was 97.7 µM. For the same molecule, the TGI (U251 CNS) was 96.8 µM, the TGI (UACC-257 melanoma) was > 100 µM and the TGI (UACC-62 melanoma) was 44.7 µM. It also gave a TGI (UO-31 renal) of 16.8 µM.

In the case of `O=C1C=CC2(C=C1)CCC(=O)O2`, the TGI (786-0 renal) is reported as 31 µM, the TGI (A498 renal) is reported as > 100 µM and the TGI (A549 NSCLC) is reported as 44.1 µM. It also gave a TGI (ACHN renal) of 34.2 µM, a TGI (BT-549 breast) of 46.3 µM and a TGI (CAKI-1 renal) of 18.2 µM. For the same molecule, the TGI (CCRF-CEM leukemia) was 25.3 µM, the TGI (COLO 205 colon) was 23.1 µM and the TGI (DU-145 prostate) was 31.5 µM. The TGI (EKVX NSCLC) was 43.8 µM, the TGI (HCC-2998 colon) was 27.2 µM and the TGI (HCT-116 colon) was 28 µM. The TGI (HCT-15 colon) was 54.3 µM, the TGI (HOP-62 NSCLC) was 38.2 µM and the TGI (HOP-92 NSCLC) was 26.6 µM. For the same molecule, the TGI (HS 578T breast) was > 100 µM, the TGI (HT29 colon) was > 100 µM and the TGI (IGROV1 ovarian) was 28.5 µM. The TGI (K-562 leukemia) was > 100 µM, the TGI (KM12 colon) was 29.9 µM and the TGI (LOX IMVI melanoma) was 20.9 µM. The TGI (M14 melanoma) was > 100 µM, the TGI (MALME-3M melanoma) was 19.6 µM and the TGI (MCF7 breast) was 34.5 µM. For the same molecule, the TGI (MDA-MB-231 breast) was 23.9 µM, the TGI (MDA-MB-435) was 29.6 µM and the TGI (MDA-N) was > 100 µM. For the same molecule, the TGI (MOLT-4 leukemia) was > 100 µM, the TGI (NCI-H226 lung) was > 100 µM and the TGI (NCI-H23 lung) was 43.9 µM. For the same molecule, the TGI (NCI-H460 lung) was 30.7 µM, the TGI (NCI-H522 lung) was 5.4 µM and the TGI (NCI/ADR-RES ovarian) was > 100 µM. It also gave a TGI (OVCAR-3 ovarian) of 28.9 µM, a TGI (OVCAR-4 ovarian) of 29.9 µM and a TGI (OVCAR-5 ovarian) of 46 µM. For the same molecule, the TGI (OVCAR-8 ovarian) was > 100 µM, the TGI (PC-3 prostate) was 27.1 µM and the TGI (RPMI-8226 leukemia) was 23.7 µM. For the same molecule, the TGI (RXF 393 renal) was 28.3 µM, the TGI (SF-268 CNS) was 51.6 µM and the TGI (SF-295 CNS) was 46.4 µM. For the same molecule, the TGI (SF-539 CNS) was 76.8 µM, the TGI (SK-MEL-2 melanoma) was 36.6 µM and the TGI (SK-MEL-28 melanoma) was > 100 µM. The TGI (SK-MEL-5 melanoma) was 29.8 µM, the TGI (SN12C renal) was 34.5 µM and the TGI (SNB-19 CNS) was 37.4 µM. The TGI (SNB-75 CNS) was 39.1 µM, the TGI (SR leukemia) was > 100 µM and the TGI (SW-620 colon) was 37.5 µM. The TGI (TK-10 renal) was 24.2 µM, the TGI (U251 CNS) was 23.1 µM and the TGI (UACC-257 melanoma) was 80.2 µM. The TGI (UACC-62 melanoma) was 37.4 µM and the TGI (UO-31 renal) was 31.2 µM.

In the case of `C=CCCC(CCC=C)(C(=O)O)C(=O)O`, the TGI (786-0 renal) is reported as > 100 µM, the TGI (A549 NSCLC) is reported as > 100 µM and the TGI (ACHN renal) is reported as > 100 µM. The TGI (BT-549 breast) was > 100 µM, the TGI (CCRF-CEM leukemia) was > 100 µM and the TGI (COLO 205 colon) was > 100 µM. For the same molecule, the TGI (DU-145 prostate) was > 100 µM, the TGI (EKVX NSCLC) was > 100 µM and the TGI (HCC-2998 colon) was > 100 µM. For the same molecule, the TGI (HCT-116 colon) was > 100 µM, the TGI (HCT-15 colon) was > 100 µM and the TGI (HL-60(TB) leukemia) was > 100 µM. For the same molecule, the TGI (HOP-62 NSCLC) was > 100 µM, the TGI (HS 578T breast) was > 100 µM and the TGI (HT29 colon) was > 100 µM. For the same molecule, the TGI (IGROV1 ovarian) was > 100 µM, the TGI (K-562 leukemia) was > 100 µM and the TGI (KM12 colon) was > 100 µM. The TGI (LOX IMVI melanoma) was > 100 µM, the TGI (M14 melanoma) was > 100 µM and the TGI (MALME-3M melanoma) was > 100 µM. The TGI (MCF7 breast) was > 100 µM, the TGI (MDA-MB-231 breast) was > 100 µM and the TGI (MDA-MB-435) was > 100 µM. For the same molecule, the TGI (MDA-N) was > 100 µM, the TGI (MOLT-4 leukemia) was > 100 µM and the TGI (NCI-H23 lung) was > 100 µM. For the same molecule, the TGI (NCI-H460 lung) was > 100 µM, the TGI (NCI-H522 lung) was > 100 µM and the TGI (NCI/ADR-RES ovarian) was > 100 µM. The TGI (OVCAR-3 ovarian) was > 100 µM, the TGI (OVCAR-5 ovarian) was > 100 µM and the TGI (OVCAR-8 ovarian) was > 100 µM. The TGI (PC-3 prostate) was > 100 µM, the TGI (RPMI-8226 leukemia) was > 100 µM and the TGI (RXF 393 renal) was > 100 µM. For the same molecule, the TGI (SF-268 CNS) was > 100 µM, the TGI (SF-295 CNS) was > 100 µM and the TGI (SF-539 CNS) was > 100 µM. For the same molecule, the TGI (SK-MEL-2 melanoma) was > 100 µM, the TGI (SK-MEL-28 melanoma) was > 100 µM and the TGI (SK-MEL-5 melanoma) was > 100 µM. The TGI (SN12C renal) was > 100 µM, the TGI (SNB-19 CNS) was > 100 µM and the TGI (SNB-75 CNS) was > 100 µM. For the same molecule, the TGI (SR leukemia) was > 100 µM, the TGI (SW-620 colon) was > 100 µM and the TGI (TK-10 renal) was > 100 µM. For the same molecule, the TGI (U251 CNS) was > 100 µM, the TGI (UACC-257 melanoma) was > 100 µM and the TGI (UACC-62 melanoma) was > 100 µM. The TGI (UO-31 renal) was > 100 µM.
